Results reported in the supplement of paper PMC11061612.

What was measured:
Carboplatin = compound: C1CC(C1)(C(=O)[O-])C(=O)[O-].N.N.[Pt+2] [Carboplatin]; conditions: max 10 µM
In short: (§1)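 Viability was measured with CellTiter-Glo 2.0 luminescence after 72 hours of dosing at a final DMSO of typically 0.2%, and scaled between blank-well and DMSO-well means. Beforehand, cancer cell lines sat 24 hours at 37°C and 5% CO2 in 1536-well plates in 7.5 μl DMEM/F12 or RPMI with 10% FBS. A non-linear mixed effects model fitted two-parameter logistic curves to the dose responses. The single-agent IC50 comes from these fits.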

AZD5363 = compound: C1CN(CCC1(C(=O)N[C@@H](CCO)C2=CC=C(C=C2)Cl)N)C3=NC=NC4=C3C=CN4 [AZD5363]; conditions: max 10 µM
In short: as §1

AZD1775 = compound: C=CCn1c(=O)c2cnc(Nc3ccc(N4CCN(C)CC4)cc3)nc2n1-c1cccc(C(C)(C)O)n1 [AZD1775]; conditions: max 3 µM
In short: as §1

Trametinib = compound: CC(=O)Nc1cccc(-n2c(=O)n(C3CC3)c(=O)c3c(Nc4ccc(I)cc4F)n(C)c(=O)c(C)c32)c1 [Trametinib]; conditions: max 1 µM
In short: as §1

Paclitaxel = compound: CC(=O)O[C@H]1C(=O)[C@@]2(C)[C@H]([C@H](OC(=O)c3ccccc3)[C@]3(O)C[C@H](OC(=O)[C@H](O)[C@@H](NC(=O)c4ccccc4)c4ccccc4)C(C)=C1C3(C)C)[C@]1(OC(C)=O)CO[C@@H]1C[C@@H]2O [Paclitaxel]; conditions: max 3 µM
In short: as §1

Palbociclib = compound: CC(=O)c1c(C)c2cnc(Nc3ccc(N4CCNCC4)cn3)nc2n(C2CCCC2)c1=O [Palbociclib]; conditions: max 10 µM
In short: as §1

AZD1390 = compound: CC(C)n1c(=O)n(C)c2cnc3cc(F)c(-c4ccc(OCCCN5CCCCC5)nc4)cc3c21 [AZD1390]; conditions: max 0.3 µM
In short: as §1

Venetoclax = compound: CC1(C)CCC(CN2CCN(c3ccc(C(=O)NS(=O)(=O)c4ccc(NCC5CCOCC5)c([N+](=O)[O-])c4)c(Oc4cnc5[nH]ccc5c4)c3)CC2)=C(c2ccc(Cl)cc2)C1 [Venetoclax]; conditions: max 1 µM
In short: as §1

Dasatinib = compound: CC1=C(C(=CC=C1)Cl)NC(=O)C2=CN=C(S2)NC3=CC(=NC(=N3)C)N4CCN(CC4)CCO [Dasatinib]; conditions: max 2 µM
In short: as §1

SG3199 = compound: CC1=CN2[C@@H](C1)C=NC3=CC(=C(C=C3C2=O)OC)OCCCCCOC4=C(C=C5C(=C4)N=C[C@@H]6CC(=CN6C5=O)C)OC [SG3199]; conditions: max 0.001 µM
In short: as §1

AZD2811 = compound: CCN(CCO)CCCOc1ccc2c(Nc3cc(CC(=O)Nc4cccc(F)c4)[nH]n3)ncnc2c1 [AZD2811]; conditions: max 1 µM
In short: as §1

SN-38 = compound: CCc1c2c(nc3ccc(O)cc13)-c1cc3c(c(=O)n1C2)COC(=O)[C@]3(O)CC [SN-38]; conditions: max 0.3 µM
In short: as §1

AZD0156 = compound: CN(C)CCCOc1ccc(-c2ccc3ncc4c(c3c2)n(C2CCOCC2)c(=O)n4C)cn1 [AZD0156]; conditions: max 3 µM
In short: as §1

AZD4320 = compound: CN(CC[C@H](CSC1=CC=CC=C1)NC2=C(C=C(C=C2)S(=O)(=O)NC(=O)C3=CC=C(C=C3)N4CCC(CC4)[C@H](C5=CC=CC=C5C6=CC=C(C=C6)Cl)O)S(=O)(=O)C(F)(F)F)CCO [AZD4320]; conditions: max 1 µM
In short: as §1

Alisertib = compound: COc1cc(Nc2ncc3c(n2)-c2ccc(Cl)cc2C(c2c(F)cccc2OC)=NC3)ccc1C(=O)O [Alisertib]; conditions: max 10 µM
In short: as §1

Etoposide = compound: COc1cc([C@@H]2c3cc4c(cc3[C@@H](O[C@@H]3O[C@@H]5CO[C@@H](C)O[C@H]5[C@H](O)[C@H]3O)[C@H]3COC(=O)[C@H]23)OCO4)cc(OC)c1O [Etoposide]; conditions: max 10 µM
In short: as §1

Gefitinib = compound: COc1cc2ncnc(Nc3ccc(F)c(Cl)c3)c2cc1OCCCN1CCOCC1 [Gefitinib]; conditions: max 10 µM
In short: as §1

Prexasertib = compound: COc1cccc(OCCCN)c1-c1cc(Nc2cnc(C#N)cn2)n[nH]1 [Prexasertib]; conditions: max 1 µM
In short: as §1

Doxorubicin = compound: COc1cccc2c1C(=O)c1c(O)c3c(c(O)c1C2=O)C[C@@](O)(C(=O)CO)C[C@@H]3O[C@H]1C[C@H](N)[C@H](O)[C@H](C)O1 [Doxorubicin]; conditions: max 1 µM
In short: as §1

AZD5153 = compound: COc1nnc2ccc(N3CCC(c4ccc(OCCN5CCN(C)C(=O)[C@H]5C)cc4)CC3)nn12 [AZD5153]; conditions: max 1 µM
In short: as §1

Lapatinib = compound: CS(=O)(=O)CCNCc1ccc(-c2ccc3ncnc(Nc4ccc(OCc5cccc(F)c5)c(Cl)c4)c3c2)o1 [Lapatinib]; conditions: max 10 µM
In short: as §1

AZD8186 = compound: C[C@@H](Nc1cc(F)cc(F)c1)c1cc(C(=O)N(C)C)cc2c(=O)cc(N3CCOCC3)oc12 [AZD8186]; conditions: max 10 µM
In short: as §1

Crizotinib = compound: C[C@@H](Oc1cc(-c2cnn(C3CCNCC3)c2)cnc1N)c1c(Cl)ccc(F)c1Cl [Crizotinib]; conditions: max 10 µM
In short: as §1

Savolitinib = compound: C[C@@H](c1ccc2nccn2c1)n1nnc2ncc(-c3cnn(C)c3)nc21 [Savolitinib]; conditions: max 1 µM
In short: as §1

AZD6738 = compound: C[C@@H]1COCCN1C2=NC(=NC(=C2)C3(CC3)[S@](=N)(=O)C)C4=C5C=CNC5=NC=C4 [AZD6738]; conditions: max 10 µM
In short: as §1

AZD5991 = compound: Cc1c2c(nn1C)CSCc1cc(n(C)n1)CSc1cc(c3ccccc3c1)OCCCc1c(C(=O)O)n(C)c3c-2c(Cl)ccc13 [AZD5991]; conditions: max 1 µM
In short: as §1

AZD7648 = compound: Cc1cc2ncnn2cc1Nc1ncc2c(n1)n(C1CCOCC1)c(=O)n2C [AZD7648]; conditions: max 10 µM
In short: as §1

Taselisib = compound: Cc1nc(-c2cn3c(n2)-c2ccc(-c4cnn(C(C)(C)C(N)=O)c4)cc2OCC3)n(C(C)C)n1 [Taselisib]; conditions: max 10 µM
In short: as §1

Selumetinib = compound: Cn1cnc2c(F)c(Nc3ccc(Br)cc3Cl)c(C(=O)NOCCO)cc21 [Selumetinib]; conditions: max 10 µM
In short: as §1

SRA737 = compound: N#Cc1cnc(Nc2cc(NC[C@H]3CNCCO3)c(C(F)(F)F)cn2)cn1 [SRA737]; conditions: max 10 µM
In short: as §1

MK-2206 = compound: NC1(c2ccc(-c3nc4ccn5c(=O)[nH]nc5c4cc3-c3ccccc3)cc2)CCC1 [MK-2206]; conditions: max 10 µM
In short: as §1

Gemcitabine = compound: Nc1ccn([C@@H]2O[C@H](CO)[C@@H](O)C2(F)F)c(=O)n1 [Gemcitabine]; conditions: max 0.3 µM
In short: as §1

[1] = compound: O=C(Nc1ccc2[nH]nc(-c3ccncc3)c2c1)[C@@H]1CCN(CC(=O)N2CCN(c3ccc(-c4ncccn4)cc3)CC2)C1; conditions: max 5 µM
In short: as §1

Olaparib = compound: O=C(c1cc(Cc2n[nH]c(=O)c3ccccc23)ccc1F)N1CCN(C(=O)C2CC2)CC1 [Olaparib]; conditions: max 10 µM
In short: as §1

5-Fluorouracil = compound: O=c1[nH]cc(F)c(=O)[nH]1 [5-Fluorouracil]; conditions: max 20 µM
In short: as §1

8305C (Thyroid Gland Carcinoma)
IC50, cell viability 72 h (Carboplatin): > 10000 nM | IC50, cell viability 72 h (AZD5363): > 10000 nM | IC50, cell viability 72 h (AZD1775): 1940 nM | IC50, cell viability 72 h (Trametinib): 902 nM | IC50, cell viability 72 h (Paclitaxel): 159 nM | IC50, cell viability 72 h (Palbociclib): > 10000 nM | IC50, cell viability 72 h (AZD1390): > 300 nM | IC50, cell viability 72 h (Venetoclax): > 1000 nM | IC50, cell viability 72 h (Dasatinib): 1150 nM | IC50, cell viability 72 h (SG3199): > 1 nM | IC50, cell viability 72 h (AZD2811): > 1000 nM | IC50, cell viability 72 h (SN-38): > 300 nM | IC50, cell viability 72 h (AZD0156): > 3000 nM | IC50, cell viability 72 h (AZD4320): > 1000 nM | IC50, cell viability 72 h (Alisertib): > 10000 nM | IC50, cell viability 72 h (Etoposide): > 10000 nM | IC50, cell viability 72 h (Gefitinib): > 10000 nM | IC50, cell viability 72 h (Prexasertib): 87.8 nM | IC50, cell viability 72 h (Doxorubicin): > 1000 nM | IC50, cell viability 72 h (AZD5153): > 1000 nM | IC50, cell viability 72 h (Lapatinib): > 10000 nM | IC50, cell viability 72 h (AZD8186): > 10000 nM | IC50, cell viability 72 h (Crizotinib): > 10000 nM | IC50, cell viability 72 h (Savolitinib): > 1000 nM | IC50, cell viability 72 h (AZD6738): > 10000 nM | IC50, cell viability 72 h (AZD5991): > 1000 nM | IC50, cell viability 72 h (AZD7648): > 10000 nM | IC50, cell viability 72 h (Taselisib): 1280 nM | IC50, cell viability 72 h (Selumetinib): > 10000 nM | IC50, cell viability 72 h (SRA737): > 10000 nM | IC50, cell viability 72 h (MK-2206): > 10000 nM | IC50, cell viability 72 h (Gemcitabine): > 300 nM | IC50, cell viability 72 h [1]: > 5000 nM | IC50, cell viability 72 h (Olaparib): > 10000 nM | IC50, cell viability 72 h (5-Fluorouracil): > 20000 nM

CAL-54 (Kidney Carcinoma)
IC50, cell viability 72 h (Carboplatin): > 10000 nM | IC50, cell viability 72 h (AZD5363): 9910 nM | IC50, cell viability 72 h (AZD1775): 452 nM | IC50, cell viability 72 h (Trametinib): > 1000 nM | IC50, cell viability 72 h (Paclitaxel): 399 nM | IC50, cell viability 72 h (Palbociclib): 4130 nM | IC50, cell viability 72 h (AZD1390): > 300 nM | IC50, cell viability 72 h (Venetoclax): > 1000 nM | IC50, cell viability 72 h (Dasatinib): 33.6 nM | IC50, cell viability 72 h (SG3199): > 1 nM | IC50, cell viability 72 h (AZD2811): > 1000 nM | IC50, cell viability 72 h (SN-38): 15.6 nM | IC50, cell viability 72 h (AZD0156): > 3000 nM | IC50, cell viability 72 h (AZD4320): > 1000 nM | IC50, cell viability 72 h (Alisertib): 4710 nM | IC50, cell viability 72 h (Etoposide): > 10000 nM | IC50, cell viability 72 h (Gefitinib): 5890 nM | IC50, cell viability 72 h (Prexasertib): 38.5 nM | IC50, cell viability 72 h (Doxorubicin): 936 nM | IC50, cell viability 72 h (AZD5153): 102 nM | IC50, cell viability 72 h (Lapatinib): 7990 nM | IC50, cell viability 72 h (AZD8186): 873 nM | IC50, cell viability 72 h (Crizotinib): > 10000 nM | IC50, cell viability 72 h (Savolitinib): > 1000 nM | IC50, cell viability 72 h (AZD6738): 5490 nM | IC50, cell viability 72 h (AZD5991): > 1000 nM | IC50, cell viability 72 h (AZD7648): > 10000 nM | IC50, cell viability 72 h (Taselisib): 2280 nM | IC50, cell viability 72 h (Selumetinib): > 10000 nM | IC50, cell viability 72 h (SRA737): > 10000 nM | IC50, cell viability 72 h (MK-2206): 3360 nM | IC50, cell viability 72 h (Gemcitabine): 23.4 nM | IC50, cell viability 72 h [1]: > 5000 nM | IC50, cell viability 72 h (Olaparib): > 10000 nM | IC50, cell viability 72 h (5-Fluorouracil): > 20000 nM
